The source of these data is patent publication EP0172919A1, “CEPHALOSPORIN DERIVATIVES, PROCESS FOR THEIR PREPARATION, AND THEIR PHARMACEUTICAL USE” (TEIJIN LIMITED, priority 1984, dated 1985).

Assay [1] has as its system E.coli 81. In words: MIC in E.coli 81 (Table IV). Format: cell-based. The note with it: Escherichia coli, 81, 16 h, read-out: MIC (μg/mℓ) in E.coli 81. Here is the method:
(§1) In vitro antibacterial activity was determined by the two-fold agar-plate dillution method.
(§2) One loopful of an overnight culture of each test starin in Trypticase-soy broth (10^6 viable cells per mt) was streaked on heart infusion agar (Muller-Hinton Agar) containing graded concentrations of representative test compound, and the minimal inhibitory concentration (MIC) was expressed in terms of µg/ml after incubation at 37°C for 16 hours.

Assay [2] deals with E.coli 81. In words: Duration of antibiotic activity: survival of mice dosed before E.coli 81 infection. The assay is classed as in vivo, ICR strain male mice. Here is the method:
The duration of antibiotic activity of compound (100) was determined.
Experiment was performed in ICR strain male mice (5W). The animals were used in a group of 10 per regimen. A solution of E.coli 81 was injected intrapenetreally at a dose of 5 x 10^5 cell/head. Before one or three hours, the compound (100) was injected subcutaneously at a dose of 0.5 mg/head. Survival mice were counted on day 4 after injection.

In assay [3] the test system is Pseudomonas aeruginosa IFO3445. In words: In vitro antibacterial activity, two-fold agar-plate dilution method (MIC). The assay is classed as cell-based. The note with it: Pseudomonas aeruginosa IFO3445; agar dilution, 37°C for 16 hours; read-out: MIC. Here is the method:
as §1, §2
(§3) In vitro antibacterial activities of other compounds of the present invention were determined in the same way as in Example 26.

A further assay concerns Staphyrococcus Terajima. Described as above. The assay is classed as cell-based. Conditions: Staphyrococcus Terajima; agar dilution, 37°C for 16 hours; read-out: MIC. The protocol:
as §1, §2, §3

The test system of the next assay is Enterobacter cloacae 963. The assay is described as above. The assay is classed as cell-based. The note with it: Enterobacter cloacae 963; agar dilution, 37°C for 16 hours; read-out: MIC. The protocol: as §1, §2, §3
The subject of assay [4] is Pseudomonas aeruginosa NCTC10490. The assay is described as above. Format: cell-based. Conditions: Pseudomonas aeruginosa NCTC10490; agar dilution, 37°C for 16 hours; read-out: MIC. The protocol:
as §1, §2

Assay [5] relates to Butilus subtilis ATCC6633. Described as above. The note with it: 37°C for 16 hours. Format: cell-based. The protocol: as §1, §2
For assay [6], the system named is Staphyrococcus aureus FDA209JC-1. Described as above. The assay is classed as cell-based. Conditions: Staphyrococcus aureus FDA209JC-1; agar dilution, 37°C for 16 hours; read-out: MIC. Here is the method: as §1, §2
In assay [7] the test system is Pseudomonas aeruginosa PAO1. Described as above. Format: cell-based. The note with it: Pseudomonas aeruginosa PAO1; agar dilution, 37°C for 16 hours; read-out: MIC. The protocol:
as §1, §2

The subject of assay [8] is Escherichia coli K-12C-600. The assay is described as above. Format: cell-based. Conditions: K12C600, 37°C for 16 hours. The protocol: as §1, §2
Assay [9] relates to Salmonera typhimurium IID 971. The description is as above. Format: cell-based. Conditions: 37°C for 16 hours. The protocol: as §1, §2
Assay [10] deals with Micrococcus luteus ATCC9341. The assay is described as above. The assay is classed as cell-based. The note with it: Micrococcus luteus ATCC9341; agar dilution, 37°C for 16 hours; read-out: MIC. The protocol:
as §1, §2

For assay [11], the system named is Staphyrococcus aureus MS 353. The assay is described as above. Format: cell-based. The note with it: Staphyrococcus aureus MS 353; agar dilution, 37°C for 16 hours; read-out: MIC. Here is the method:
as §1, §2

The subject of assay [12] is Staphyrococcus pyogenes COOK. Described as above. Format: cell-based. Conditions: Staphyrococcus pyogenes COOK; agar dilution, 37°C for 16 hours; read-out: MIC. The protocol:
as §1, §2

For assay [13], the system named is Salmonera schottmuelleri 8001. The assay is described as above. The assay is classed as cell-based. Conditions: 37°C for 16 hours. The protocol: as §1, §2
For assay [14], the system named is E.coli 81. The assay is described as follows: In vivo antibacterial activity: survival of mice infected with E.coli 81. Further details: species or system ICR strain male mice. The protocol: Experiment was performed in ICR strain male mice (5W) weighing 22 to 25 g. The animals were used in a group of 10 per regimen. Test organism, E.coli 81, was cultured on Mueller-Hinton agar over night at 37°C and suspended in saline to be one minimal lethal dose (5 x 10^5 cells/head). One mililitre of the bacterial suspension was injected intrapenetoreally and, after 15 minutes, mice were treated subcutaneously with various doses of compound (100) and comparative compound B. Survival mice were counted for 4 days and final observation was carried out on day 4.

In brackets after ≈: the same amount, converted by molar mass.

On to `CO/N=C(\C(=O)N[C@@H]1C(=O)N2C(C(=O)[O-])=C(C[N+]34CCCC3CCC4)CS[C@H]12)c1csc(N)n1` (stereo partly drawn) [Compound (100), (6R,7R)-7-[(Z)-2-(2-aminothiazol-4-yl)-2-meth-oxyiminoacetoamido]-3-(1-azabicyclo[3,3,0]octane-l-io)methyl-3-cephem-4-carboxylate], for which the MIC with E.coli 81 [1] is 0.025 µg/mL (≈ 0.0493 µM); in assay [3] it was 1.56 µg/mL (≈ 3.08 µM); in the assay with Staphyrococcus Terajima, 0.39 µg/mL (≈ 0.77 µM); in the assay on Enterobacter cloacae 963, 0.05 µg/mL (≈ 0.0987 µM); in assay [4] it was 0.025 µg/mL (≈ 0.0493 µM); in [5] it was 0.39 µg/mL (≈ 0.77 µM). Further, the MIC is 0.39 µg/mL (≈ 0.77 µM) in assay [6]; 0.1 µg/mL (≈ 0.197 µM) in assay [7]; 0.05 µg/mL (≈ 0.0987 µM) in [8]; 0.05 µg/mL (≈ 0.0987 µM) in [9]; below 0.0063 µg/mL in assay [10]; 0.2 µg/mL (≈ 0.395 µM) in assay [11]. For the same compound, the MIC in [12] and in [13] was below 0.0063 µg/mL each time. Also, the “Survival percent (%) Injection before one hour” value with E.coli 81 [2] (0.5 mg/head subcutaneously one hour before intraperitoneal E.coli 81 (5 x 10^5 cell/head), survival on day 4, mice) stood at 100%. For the same compound, in the assay with E.coli 81 [2] (0.5 mg/head subcutaneously three hours before intraperitoneal E.coli 81 (5 x 10^5 cell/head), survival on day 4, mice), the “Survival percent (%) Injection before three hours” value is 100%. Moreover, the “duration of antibiotic activity” value with E.coli 81 [2] (conclusion in words drawn from Table IV) was “excellent in duration of antibabiotic activity”. The “Survivals percent (%) on day 4” value in the assay with E.coli 81 [14] (Dose 0.016 mg/head subcutaneously 15 minutes after intraperitoneal E.coli 81 (5 x 10^5 cells/head)) was 40%; with E.coli 81 [14] (Dose 0.032 mg/head subcutaneously 15 minutes after intraperitoneal E.coli 81 (5 x 10^5 cells/head)) it was 40%; with E.coli 81 [14] (Dose 0.063 mg/head subcutaneously 15 minutes after intraperitoneal E.coli 81 (5 x 10^5 cells/head)) it was 50%; with E.coli 81 [14] (Dose 0.125 mg/head subcutaneously 15 minutes after intraperitoneal E.coli 81 (5 x 10^5 cells/head)), 100%; in the assay on E.coli 81 [14] (Dose 0.25 mg/head subcutaneously 15 minutes after intraperitoneal E.coli 81 (5 x 10^5 cells/head)), 100%; in the assay on E.coli 81 [14] (Dose 0.5 mg/head subcutaneously 15 minutes after intraperitoneal E.coli 81 (5 x 10^5 cells/head)) it was 100%.
